Where two headings read alike, the source gives them in different places.
What was measured:
Type in all cases: cell-based, Escherichia coli
E. coli EKO-35 = assay: microbe, parasite or virus in culture; conditions: for Fold change of MICs: EKO-35 compared to EKO-35 (reference); for MIC: Escherichia coli, EKO35; for MIC / Minimum inhibitory concentration (MIC), EKO-35 / Minimum Inhibitory Concentration, EKO-35: technical duplicate
In short: (§1)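 Steps: LB overnight culture at 37 °C; resuspension in PBS to OD600 ~1.0; 1/2000 dilution in MHB II; addition to 2-fold serial compound dilutions (duplicate); 18 h shaking incubation at 37 °C; OD600 read, with pre-read subtracted.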

E. coli ΔtolC = assay: microbe, parasite or virus in culture; conditions: for MIC: Escherichia coli, 18 h, read-out: Minimum Inhibitory Concentration, ΔtolC; for Minimum inhibitory concentration (MIC), ΔtolC: Table 10, without pore; for Minimum inhibitory concentration (MIC), ΔtolC / Minimum Inhibitory Concentration, ΔtolC: technical duplicate; for Minimum Inhibitory Concentration, ΔtolC: Table 13A, non-porinated
In short: as §1

[1] = system: wild-type E. coli K-12 str. BW25113; assay: microbe, parasite or virus in culture; conditions: technical duplicate; for MIC: Escherichia coli, BW25113
In short: as §1

EKO-35 araC::acrB = assay: MIC susceptibility profiling, efflux platform; conditions: for Fold change of MICs: EKO-35 araC::acrB compared to EKO-35; for MIC: Escherichia coli, read-out: Minimum Inhibitory Concentration, EKO-35 araC::acrB; for MIC / Minimum Inhibitory Concentration, EKO-35 araC::acrB: Table 13A, non-porinated, technical duplicate
In short: as §1

EKO-35 araC::acrD = assay: MIC susceptibility profiling, efflux platform; conditions: for Fold change of MICs: EKO-35 araC::acrD compared to EKO-35; for MIC: Escherichia coli, read-out: Minimum Inhibitory Concentration, EKO-35 araC::acrD; for MIC / Minimum Inhibitory Concentration, EKO-35 araC::acrD: Table 13A, non-porinated, technical duplicate
In short: as §1

EKO-35 araC::mdtBC = assay: MIC susceptibility profiling, efflux platform; conditions: for Fold change of MICs: EKO-35 araC::mdtBC compared to EKO-35; for MIC: Escherichia coli, read-out: Minimum Inhibitory Concentration, EKO-35 araC::mdtBC; for MIC / Minimum Inhibitory Concentration, EKO-35 araC::mdtBC: Table 13B, non-porinated, technical duplicate
In short: as §1

[2] = system: EKO-35 araC::mexCD (MexCD from P. aeruginosa); assay: MIC susceptibility profiling, efflux platform; conditions: for Fold change of MICs: EKO-35 araC::mexCD compared to EKO-35; for MIC / Minimum Inhibitory Concentration, EKO-35 araC::mexCD: Table 13B, non-porinated, technical duplicate; for MIC: read-out: Minimum Inhibitory Concentration, EKO-35 araC::mexCD
In short: as §1

EKO-35-Pore = assay: MIC susceptibility profiling, porinated strain; conditions: for Fold changes of MICs: EKO-35-Pore compared to EKO-35-Pore (reference); for MIC: Escherichia coli; for MIC / Minimum inhibitory concentration (MIC), Pore EKO-35 / Minimum inhibitory concentration, EKO-35-Pore: technical duplicate
In short: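 E. coli strains carrying a genomically integrated constitutive fhuA ΔC/Δ4L pore were grown 18 h in LB at 37 °C, then diluted 1/2000 in MHB II from OD600 ~1.0. Compounds were tested in duplicate, 2-fold serial titration, for 18 h at 37 °C with shaking. MIC came from OD600 with the pre-incubation background subtracted.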

[3] = Table 10, without pore, read-out: Minimum inhibitory concentration (MIC), EKO-35
[4] = Table 13A, non-porinated, read-out: Minimum Inhibitory Concentration, EKO-35
[5] = Table 10, without pore, read-out: Minimum inhibitory concentration (MIC), K-12
[6] = Table 13A, non-porinated, read-out: Minimum Inhibitory Concentration, K-12
[7] = Table 10, with pore, read-out: Minimum inhibitory concentration (MIC), Pore EKO-35
[8] = Table 14A, porinated, read-out: Minimum inhibitory concentration, EKO-35-Pore

| Compound | Fold change of MICs (E. coli EKO-35) [fold] | MIC (E. coli EKO-35; [3]) [µg/mL] | MIC (E. coli EKO-35; [4]) [µg/mL] | MIC (E. coli ΔtolC) [µg/mL] | Minimum inhibitory concentration (MIC), ΔtolC (E. coli ΔtolC) [µg/mL] | MIC [1, 5] [µg/mL] | MIC [1, 6] [µg/mL] | Fold change of MICs (EKO-35 araC::acrB) [fold] | Fold change of MICs (EKO-35 araC::acrD) [fold] | MIC (EKO-35 araC::acrD) [µg/mL] | Fold change of MICs (EKO-35 araC::mdtBC) [fold] | MIC (EKO-35 araC::mdtBC) [µg/mL] | Fold change of MICs [2] [fold] | MIC [2] [µg/mL] | Fold changes of MICs (EKO-35-Pore) [fold] | MIC (EKO-35-Pore; [7]) [µg/mL] | MIC (EKO-35-Pore; [8]) [µg/mL] | Minimum inhibitory concentration (MIC), EKO-35 (E. coli EKO-35; Table 10, without pore) [µg/mL] | Minimum Inhibitory Concentration, EKO-35 (E. coli EKO-35; Table 13A, non-porinated) [µg/mL] | Minimum Inhibitory Concentration, ΔtolC (E. coli ΔtolC) [µg/mL] | other results |
| --- | --- | --- | --- | --- | --- | --- | --- | --- | --- | --- | --- | --- | --- | --- | --- | --- | --- | --- | --- | --- | --- |
| CN[C@H](CC(C)C)C(=O)N[C@H]1C(=O)N[C@@H](CC(N)=O)C(=O)N[C@H]2C(=O)N[C@H]3C(=O)N[C@H](C(=O)N[C@H](C(=O)O)c4cc(O)cc(O)c4-c4cc3ccc4O)[C@H](O)c3ccc(c(Cl)c3)Oc3cc2cc(c3O[C@@H]2O[C@H](CO)[C@@H](O)[C@H](O)[C@H]2O[C@H]2C[C@](C)(N)[C@H](O)[C@H](C)O2)Oc2ccc(cc2Cl)[C@H]1O [vancomycin] | 1 | 200 | 200 | 200 | 200 | 200 | 200 | 1 | 1 | 200 | 1 | 200 | 1 | 200 | 1 | 6.25 | 6.25 |  |  |  | MIC (EKO-35 araC::acrB): 200 µg/mL |
| O=[N+]([O-])c1ccc2c(c1)C(=NO)c1cc([N+](=O)[O-])ccc1-2 [compound 11] | 1 |  |  |  | 0.156 |  |  |  | 8 |  | 1 |  | 16 |  | 1 |  |  | 0.078 | 0.078 | 0.156 | susceptibility of EKO-35 to the compound (E. coli EKO-35; synthetic efflux substrates of FIG. 12): susceptible; Minimum inhibitory concentration (MIC), K-12 ([1]; Table 10, without pore): 320 µg/mL; Minimum Inhibitory Concentration, K-12 ([1]; Table 13A, non-porinated): 320 µg/mL; Minimum Inhibitory Concentration, EKO-35 araC::acrB (EKO-35 araC::acrB): 320 µg/mL; Minimum Inhibitory Concentration, EKO-35 araC::acrD (EKO-35 araC::acrD): 0.625 µg/mL; Minimum Inhibitory Concentration, EKO-35 araC::mdtBC (EKO-35 araC::mdtBC): 0.078 µg/mL; Minimum Inhibitory Concentration, EKO-35 araC::mexCD [2]: 1.25 µg/mL; Minimum inhibitory concentration (MIC), Pore EKO-35 (EKO-35-Pore; Table 10, with pore): 0.078 µg/mL; Minimum inhibitory concentration, EKO-35-Pore (EKO-35-Pore; Table 14A, porinated): 0.078 µg/mL |
| N#CC(C#N)=NNc1ccc(-n2ccc(C(F)(F)F)n2)cc1 [compound 8] | 1 |  |  |  | 1.25 |  |  |  | 1 |  | 1 |  | 1 |  | 1 |  |  | 320 | 320 | 1.25 | Minimum inhibitory concentration (MIC), K-12 ([1]; Table 10, without pore): 640 µg/mL; Minimum Inhibitory Concentration, K-12 ([1]; Table 13A, non-porinated): 640 µg/mL; Minimum Inhibitory Concentration, EKO-35 araC::acrB (EKO-35 araC::acrB): 640 µg/mL; Minimum Inhibitory Concentration, EKO-35 araC::acrD (EKO-35 araC::acrD): 160 µg/mL; Minimum Inhibitory Concentration, EKO-35 araC::mdtBC (EKO-35 araC::mdtBC): 320 µg/mL; Minimum Inhibitory Concentration, EKO-35 araC::mexCD [2]: 320 µg/mL; Minimum inhibitory concentration (MIC), Pore EKO-35 (EKO-35-Pore; Table 10, with pore): 80 µg/mL; Minimum inhibitory concentration, EKO-35-Pore (EKO-35-Pore; Table 14A, porinated): 80 µg/mL |
| CN(C)[C@@H]1C(O)=C(C(N)=O)C(=O)[C@@]2(O)C(O)=C3C(=O)c4c(O)cccc4[C@@](C)(O)[C@H]3C[C@@H]12 [tetracycline] | 1 | 0.195 | 0.195 | 0.391 | 0.391 | 1.56 | 1.56 | 4 | 1 | 0.195 | 1 | 0.195 | 1 | 0.195 | 1 | 0.195 | 0.195 |  |  |  |  |
| O=C(Nc1ccccc1)Nc1ccc(Br)c(C(F)(F)F)c1 [compound 6] | 1 |  |  |  | 0.625 |  |  | 1 | 1 |  | 1 |  | 1 |  | 1 |  |  | 320 | 320 | 0.625 | Minimum inhibitory concentration (MIC), K-12 ([1]; Table 10, without pore): 320 µg/mL; Minimum Inhibitory Concentration, K-12 ([1]; Table 13A, non-porinated): 320 µg/mL; Minimum Inhibitory Concentration, EKO-35 araC::acrB (EKO-35 araC::acrB): 320 µg/mL; Minimum Inhibitory Concentration, EKO-35 araC::acrD (EKO-35 araC::acrD): 320 µg/mL; Minimum Inhibitory Concentration, EKO-35 araC::mdtBC (EKO-35 araC::mdtBC): 320 µg/mL; Minimum Inhibitory Concentration, EKO-35 araC::mexCD [2]: 320 µg/mL; Minimum inhibitory concentration (MIC), Pore EKO-35 (EKO-35-Pore; Table 10, with pore): 320 µg/mL; Minimum inhibitory concentration, EKO-35-Pore (EKO-35-Pore; Table 14A, porinated): 320 µg/mL |
| CO[C@H]1/C=C/O[C@@]2(C)Oc3c(C)c(O)c4c(O)c(c(/C=N/N5CCN(C)CC5)c(O)c4c3C2=O)NC(=O)/C(C)=C\C=C\[C@H](C)[C@H](O)[C@@H](C)[C@@H](O)[C@@H](C)[C@H](OC(C)=O)[C@@H]1C [rifampicin] | 1 | 6.25 | 6.25 | 6.25 | 6.25 | 12.5 | 12.5 |  |  | 6.25 |  | 6.25 |  | 3.12 | 1 | 0.391 | 0.391 |  |  |  | MIC (EKO-35 araC::acrB): 6.25 µg/mL |
